Laboratory results from PubChem BioAssay AID1963983 (Molecular Pharmacology Branch, DTP, NCI, 2024).
pIC50: −log10 of the molar value.

Test system: 186277-243-T-J2-PDC multi-cell spheroid viability
Assay: Anticancer human tumor 186277-243-T-J2-PDC patient-derived colon adenocarcinoma cell line growth inhibition [PI3K]
Conditions: for viability, T/C: stronger effect = lower value; for pIC50: curve of first compound
Method in brief: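 Complex 3D spheroids (cancer cells + endothelial HUVEC + mesenchymal stem cells); drug pairs of targeted agent x inavolisib/alpelisib/duvelisib/copanlisib; half-log series from ~Cmax, max 10 microM if Cmax unknown; endpoint viability.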
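Also: spheroids exposed to compounds for seven days before viability reading.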
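For viability, T/C in this document: 100% = DMSO vehicle control viability.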

SMILES: COc1c(OCCCN2CCOCC2)ccc2c3n(c(=NC(=O)c4cnc(N)nc4)nc12)CCN3
- viability, T/C (compound 0.00316 µM): 98.7% [middle of 8 runs]
- viability, T/C (compound 0.01 µM): 97.8% [middle of 8 runs]
- viability, T/C (compound 0.0316 µM): 73.4% [middle of 8 runs]
- viability, T/C (compound 0.1 µM): 16.7% [middle of 8 runs]
- viability, T/C (compound 0.316 µM): 6.29% [middle of 8 runs]
- viability, T/C (compound 1 µM): 2.87% [middle of 8 runs]
- IC50 (compound alone, run of 05/09/2023): 51.4 nM [middle of 8 runs]

SMILES: CC1(C)CCC(CN2CCN(c3ccc(C(=O)NS(=O)(=O)c4ccc(NCC5CCOCC5)c([N+](=O)[O-])c4)c(Oc4cnc5[nH]ccc5c4)c3)CC2)=C(c2ccc(Cl)cc2)C1 + CC(Nc1ncnc2nc[nH]c12)c1cc2cccc(Cl)c2c(=O)n1-c1ccccc1
- pIC50 (second compound 0.0316 µM): 5.31
- pIC50 (second compound 0.1 µM): 5.35
- pIC50 (second compound 0.316 µM): 5.25
- pIC50 (second compound 1 µM): 5.32
- pIC50 (second compound 3.16 µM): 5.29
- pIC50 (second compound 10 µM): 5.33
- viability, T/C (second compound 0.0316 µM, first compound 0.0316 µM): 96.6%
- viability, T/C (second compound 0.0316 µM, first compound 0.1 µM): 96.2%
- viability, T/C (second compound 0.0316 µM, first compound 0.316 µM): 95%
- viability, T/C (second compound 0.0316 µM, first compound 1 µM): 105%
- viability, T/C (second compound 0.0316 µM, first compound 3.16 µM): 77.3%
- viability, T/C (second compound 0.0316 µM, first compound 10 µM): 4.52%
- viability, T/C (second compound 0.1 µM, first compound 0.0316 µM): 99.5%
- viability, T/C (second compound 0.1 µM, first compound 0.1 µM): 116%
- viability, T/C (second compound 0.1 µM, first compound 0.316 µM): 96.7%
- viability, T/C (second compound 0.1 µM, first compound 1 µM): 92.2%
- viability, T/C (second compound 0.1 µM, first compound 3.16 µM): 70.5%
- viability, T/C (second compound 0.1 µM, first compound 10 µM): 4.02%
- viability, T/C (second compound 0.316 µM, first compound 0.0316 µM): 97%
- viability, T/C (second compound 0.316 µM, first compound 0.1 µM): 108%
- viability, T/C (second compound 0.316 µM, first compound 0.316 µM): 91.8%
- viability, T/C (second compound 0.316 µM, first compound 1 µM): 98.6%
- viability, T/C (second compound 0.316 µM, first compound 3.16 µM): 92.1%
- viability, T/C (second compound 0.316 µM, first compound 10 µM): 8%
- viability, T/C (second compound 1 µM, first compound 0.0316 µM): 105%
- viability, T/C (second compound 1 µM, first compound 0.1 µM): 116%
- viability, T/C (second compound 1 µM, first compound 0.316 µM): 102%
- viability, T/C (second compound 1 µM, first compound 1 µM): 112%
- viability, T/C (second compound 1 µM, first compound 3.16 µM): 77%
- viability, T/C (second compound 1 µM, first compound 10 µM): 4.04%
- viability, T/C (second compound 3.16 µM, first compound 0.0316 µM): 112%
- viability, T/C (second compound 3.16 µM, first compound 0.1 µM): 115%
- viability, T/C (second compound 3.16 µM, first compound 0.316 µM): 106%
- viability, T/C (second compound 3.16 µM, first compound 1 µM): 103%
- viability, T/C (second compound 3.16 µM, first compound 3.16 µM): 85.9%
- viability, T/C (second compound 3.16 µM, first compound 10 µM): 3.14%
- viability, T/C (second compound 10 µM, first compound 0.0316 µM): 97%
- viability, T/C (second compound 10 µM, first compound 0.1 µM): 96.1%
- viability, T/C (second compound 10 µM, first compound 0.316 µM): 97.2%
- viability, T/C (second compound 10 µM, first compound 1 µM): 95.5%
- viability, T/C (second compound 10 µM, first compound 3.16 µM): 74.7%
- viability, T/C (second compound 10 µM, first compound 10 µM): 2.09%
